Values quoted from earlier work as cited in patent US20150209375A1, “POSOLOGY AND ADMINISTRATION OF GLUCOCORTICOID BASED COMPOSITIONS” (DuoCort Pharma AB, priority 2010, published 2015).

Conditions: Lennernäs et al 2008

C[C@]12CCC(=O)C=C1CC[C@@H]1[C@@H]2[C@@H](O)C[C@@]2(C)[C@H]1CC[C@]2(O)C(=O)CO [Hydrocortisone]
BCS class (Amidon et al 1995): BCS class II | extraction: low extraction drug
